Measurements from patent US20020155084A1, “Nanoemulsion formulations” (The Regents of the University of the Michigan, priority 2000, published 2002).

System: hairy mouse skin
Settings: 2:1 nanoemulsion, aqueous phase 0.05 M HEPES pH 7.4; 5 μg/ml inulin or 3 μg/ml tranexamic acid, FIG. 9

For inulin, the marker permeation slope was 0.233 % per hour per square centimeter.
